Test results: patent US20100304975A1, “PROCESS FOR […] RESISTANCE TO AN ABIOTIC STRESS” (ELICITYL, priority 2007, published 2010)

Assays:
Type in all cases: in vivo
Pinot noir = test: Frost-resistance of vine plants after foliar spraying, Pinot noir; conditions: for Gain: cold stress -3 to -5° C. 12 hours after application
Procedure: (§1) Plants originating from different vine varieties: the Chardonnay, Pinot noir and Cabernet-Sauvignon varieties are used. Each sample, composed of 5 to 21 plants, is treated by foliar spraying at different vegetative stages on the BBCH scale with a mixture containing the xyloglucan elicitor, HEPTAMALOXYLOGLUCAN or XFGol in solution at variable doses; the spraying of 2.5 ml of solution per plant is carried out using a sprayer (deviation of +/−1%).
(§2) 12 hours after the application of the elicitor, the plants were exposed to cold stress at −3 to −5° C. After exposure to the cold, the plants are placed in a climatic chamber at 20° C. with a 12-hour day/night alternation. The appearance of the leaves is observed 24 hours and 72 hours after removal from the cold. The effects of the cold are evaluated by observing the foliar necroses induced by frost and the plants are kept for several months in order to monitor their subsequent development.
(§3) The results are expressed by the protection index IP: IP (%)=100−P; P, being the proportion of necrotized leaves.

Chardonnay = test: Frost-resistance of vine plants after foliar spraying, Chardonnay; conditions: for Gain: cold stress -3 to -5° C. 12 hours after application
Procedure: as §1, §2, §3

Cabernet-Sauvignon = test: Frost-resistance of vine plants after foliar spraying, Cabernet-Sauvignon; conditions: for Gain: Cabernet Sauvignon, cold stress -3 to -5° C. 12 hours after application
Procedure: as §1, §2, §3

kiwi plants = test: Frost-resistance of kiwi plants after foliar spraying (death of buds); conditions: for Gain % / IP (protection index of kiwi buds; IP=100-P, P=proportion of dead buds): elicitor 500 nM
Procedure: The elicitor which is used is HEPTAMALOXYLOGLUCAN (or XFGol).
Before the cold stress, plants are treated or not by foliar spraying with a spray mixture containing HEPTAMALOXYLOGLUCAN.
After application of the spraying mixture, the plants were exposed to cold stress. In order to reproduce artificial conditions of cold stress, plants were placed in a climatic chamber.
The effects of cold are evaluated by observing the death of buds due to frost.
The results are expressed by the protection index IP: IP (%)=100-P; P, being the proportion of dead buds.
The results are also expressed in gain:
Increase of protection of kiwi plants elicited by the product PEL101GV (500 nM). IP corresponds to the protection index of kiwi buds, 28 days after the cold stress at −2,8° C. or −4° C. (IP=100−P; P=proportion of dead buds)

[1] = spray mixture containing 5 nM, compared within a range of 0.5 nM to 5000 nM
[2] = 28 days after the cold stress at -2.8° C.
[3] = 28 days after the cold stress at -4° C.

For `CC1OC(OC2C(OC3C(OCC4OC(OC(C(O)CO)C(O)C(O)CO)C(O)C(O)C4OC4OC(COC5OCC(O)C(O)C5O)C(O)C(O)C4O)OCC(O)C3O)OC(CO)C(O)C2O)C(O)C(O)C1O` (stereo not drawn) [HEPTAMALOXYLOGLUCAN], the Gain (Pinot noir; elicitor 0.5 nM foliar spray) was 0%, the Gain (Pinot noir; elicitor 5 nM foliar spray) was 34% and the Gain (Pinot noir; elicitor 50 nM foliar spray) was 0%. For the same compound, the Gain (Pinot noir; elicitor 500 nM foliar spray) was 27%, the Gain (Pinot noir; elicitor 5000 nM foliar spray) was 25% and the protection against frost (Pinot noir; [1]) was “more efficient than the other doses”. The Gain (Chardonnay; elicitor 0.5 nM foliar spray) was 28%, the Gain (Chardonnay; elicitor 5 nM foliar spray) was 42% and the Gain (Chardonnay; elicitor 50 nM foliar spray) was 9%. The Gain (Chardonnay; elicitor 500 nM foliar spray) was 0%, the Gain (Chardonnay; elicitor 5000 nM foliar spray) was 28% and the protection against frost (Chardonnay; [1]) was “more efficient than the other doses”. The Gain (Cabernet-Sauvignon; elicitor 5 nM foliar spray) was 46%, the Gain (Cabernet-Sauvignon; elicitor 50 nM foliar spray) was 35% and the Gain (Cabernet-Sauvignon; elicitor 500 nM foliar spray) was 76%. The protection against frost (Cabernet-Sauvignon; Cabernet sauvignon, spray mixture containing 500 nM, compared with the other doses) was “more efficient than the other doses”, the Gain % (kiwi plants; [2]) was 27% and the “IP (protection index of kiwi buds; IP=100-P, P=proportion of dead buds)” value (kiwi plants; [2]) was 81%. For the same compound, the Gain % (kiwi plants; [3]) was 87%, the “IP (protection index of kiwi buds; IP=100-P, P=proportion of dead buds)” value (kiwi plants; [3]) was 56% and the “protection of the kiwi buds against frost” value (kiwi plants; treated versus control) was “better protection”.
